Source: publication PMC9182378, “Bicyclic Isoxazoline Derivatives: Synthesis and Evaluation of Biological Activity” (Molecules, 2022)

Legend:
MCF-7 = assay: MTT assay cytotoxicity; format: cell-based; conditions: Homo sapiens, MCF7, MCF-7 (breast cancer), 72 h
A-549 = assay: MTT assay cytotoxicity; format: cell-based; conditions: Homo sapiens, A549, A-549 (lung cancer), 72 h
HCT-116 = assay: MTT assay cytotoxicity; format: cell-based; conditions: Homo sapiens, HCT-116 (colon cancer), 72 h
WI38 = assay: MTT assay cytotoxicity; format: cell-based; conditions: Homo sapiens, WI-38, WI38 (fibroblasts, normal), 72 h
E. coli = assay: Minimum inhibitory concentration (CLSI); format: cell-based, Escherichia coli
in vitro = conditions: dog
[1] = system: cancer or normal cell lines; assay: MTT assay cytotoxicity, summary over the cell line panel; conditions: for toxicity against cancer or normal cell lines: either cancer or normal cell lines; for IC50: read-out: IC50 against cancer cell lines (range over compounds and lines)
Hek293t = assay: MTT assay cytotoxicity; format: cell-based; conditions: Homo sapiens, HEK-293T, Hek293t (embryonic kidney, normal), 72 h
C. albicans [2] = assay: Minimum inhibitory concentration (CLSI); format: cell-based, Candida albicans
A. niger [3] = assay: Minimum inhibitory concentration (CLSI); format: cell-based, Aspergillus niger
St. aureus [4] = assay: Minimum inhibitory concentration (CLSI); format: cell-based, Staphylococcus aureus; conditions: ATCC 29213 strain used for MIC
Experimental: Minimum inhibitory concentrations (MIC) were determined for the selected active strains according to the Performance Standards for Antimicrobial Susceptibility Testing (CLSI). The Staphylococcus aureus ATCC 29213 strain was used for MIC measurements. Amphotericin B, clotrimazole, vancomycin and ampicillin were used as positive control.

A. niger [5] = assay: Agar-diffusion assay (zone of inhibition); conditions: Aspergillus niger, 24 h
Experimental: (§1) Initial screening of antimicrobial activity was performed by using agar-diffusion assay against a number of microorganisms: fungi (Aspergillus niger INA 00760), yeast (Candida albicans CBS 8836), gram-positive bacteria (Bacillus subtilis ATCC 6633, Staphylococcus aureus ATCC 25923) and gram-negative bacteria (Escherichia coli ATCC 25922). For the bacterial strains, the agar-diffusion method on the Mueller–Hinton medium was performed using direct colony suspension, equivalent to a 0.5 McFarland standard as inoculate. For the fungal test-strains, the Sabouraud medium was used with 0.2% glucose, inoculated with direct colony suspension (10^6 CFU/100 mL). The tested compounds were applied on Petri dishes on sterile paper disks (6 mm); 100 µg/disk inhibition zones were measured after 24 h incubation at 37 °C. As a positive control, standard antibiotic disks containing 30 µg vancomycin (for B. subtilis), 10 µg gentamicin (for E. coli), and 40 µg fluconazole (for A. niger and C. albicans) were used.

St. aureus [6] = assay: Agar-diffusion assay (zone of inhibition); conditions: Staphylococcus aureus, ATCC25923, 24 h
Experimental: as §1

B. subtilis [7] = assay: Agar-diffusion assay (zone of inhibition); conditions: Bacillus subtilis, ATCC6633, 24 h
Experimental: as §1

C. albicans [8] = assay: Agar-diffusion assay (zone of inhibition); conditions: Candida albicans, CBS8836, 24 h
Experimental: as §1

B. subtilis [9] = assay: Minimum inhibitory concentration (CLSI); format: cell-based, Bacillus subtilis
[10] = system: Rimantadine-resistant M2 proton channel; design: method as in PMID 27187859; conditions: cited from earlier work

Structure (SMILES)	melting point	IC50 (MCF-7)	IC50 (A-549)	IC50 (HCT-116)	IC50 (WI38)	other results
CS(=O)(=O)NC1=NOC2(CCCCCCC2)C1 [Compound 5a, N-(1-Oxa-2-azaspiro[4.7]dodec-2-en-3-yl)methanesulfonamide]	110 to 111 °C					
Cc1cc(C)c(S(=O)(=O)NC2=NOC3(CCCCCCC3)C2)c(C)c1 [Compound 5e, 2,4,6-Trimethyl-N-(1-oxa-2-azaspiro[4.7]dodec-2-en-3-yl)benzenesulfonamide]	135 to 136 °C	79 ± 36 µM	61 ± 21 µM	70.1 ± 11.2 µM	95.5 ± 14.3 µM	
CC1(C)S[C@@H]2[C@H](NC(=O)[C@H](N)c3ccccc3)C(=O)N2[C@H]1C(=O)O [Ampicillin, reference compound]						MIK (E. coli): 2 to 8 µg/mL
NC1=NOC2(CCCCCCC2)C1 [Compound 3, 1-Oxa-2-azaspiro[4.7]dodec-2-en-3-amine]		> 150 µM	> 150 µM	> 500 µM	> 150 µM	CC50 (in vitro): > 550 µM; toxicity against cancer or normal cell lines [1]: not toxic
CC(N)C12CC3CC(CC(C3)C1)C2 (stereo not drawn) [Rimantadine, reference compound]						CC50 (in vitro): 406 ± 26 µM
O=S(=O)(NC1=NOC2(CCCCCCC2)C1)c1ccc(F)cc1F [Compound 5h, 2,4-Difluoro-N-(1-oxa-2-azaspiro[4.7]dodec-2-en-3-yl)benzenesulfonamide]	118 to 119 °C	94.7 ± 15.5 µM	77.1 ± 10.2 µM	97.1 ± 34 µM		IC50 (Hek293t): 60 ± 17 µM
Clc1ccccc1C(c1ccccc1)(c1ccccc1)n1ccnc1 [Clotrimazole, reference compound]						MIK (C. albicans [2]): 4 µg/mL
CC(=O)Nc1ccc(S(=O)(=O)NC2=NOC3(CCCCCCC3)C2)cc1 [Compound 5g, N-(4-(N-1-Oxa-2-azaspiro[4.7]dodec-2-en-3-ylsulfamoyl)phenyl)acetamide]	171 to 173 °C (dec.)	54.5 ± 15 µM	54 ± 14 µM	41.3 ± 17 µM		IC50 (Hek293t): 30.4 ± 14.5 µM; IC50 [1]: 17.7 to 58.8 µM
O=S(=O)(Cc1ccccc1)NC1=NOC2(CCCCCCC2)C1 [Compound 5b, N-(1-Oxa-2-azaspiro[4.7]dodec-2-en-3-yl)-1-phenylmethanesulfonamide]	68 to 70 °C	138 ± 25 µM		> 200 µM	> 500 µM	
NC1=NOC2CCCCCCC12 (stereo not drawn) [Compound 4, 3a,4,5,6,7,8,9,9a-Octahydrocycloocta[d]isoxazol-3-amine]		> 150 µM	> 150 µM	> 500 µM	> 150 µM	CC50 (in vitro): > 1790 µM; toxicity against cancer or normal cell lines [1]: not toxic
O=S(=O)(NC1=NOC2(CCCCCCC2)C1)c1ccccc1 [Compound 5c, N-(1-Oxa-2-azaspiro[4.7]dodec-2-en-3-yl)benzenesulfonamide]	156 to 157 °C	116 ± 30 µM	163 µM	63 ± 18 µM	113 µM	
Cc1ccc(S(=O)(=O)NC2=NOC3(CCCCCCC3)C2)cc1 [Compound 5d, 4-Methyl-N-(1-oxa-2-azaspiro[4.7]dodec-2-en-3-yl)benzenesulfonamide]	122 to 124 °C	94 ± 30 µM	143 ± 50 µM		54.6 ± 7 µM	
C[C@@H]1[C@H](O)[C@@H](C)/C=C/C=C/C=C/C=C/C=C/C=C/C=C/[C@H](O[C@@H]2O[C@H](C)[C@@H](O)[C@H](N)[C@@H]2O)C[C@@H]2O[C@](O)(C[C@@H](O)C[C@@H](O)[C@H](O)CC[C@@H](O)C[C@@H](O)CC(=O)O[C@H]1C)C[C@H](O)[C@H]2C(=O)O [Amphotericin B, reference compound]						MIK (A. niger [3]): 0.04 to 1.5 µg/mL; MIK (C. albicans [2]): 2 µg/mL
O=[N+]([O-])C1=NOC2(CCCCCCC2)C1 [Compound 1, 3-Nitro-1-oxa-2-azaspiro[4.7]dodec-2-ene]	55 to 57 °C	58.8 ± 5 µM	57.1 ± 7 µM	20.8 ± 5 µM	42.2 ± 13 µM	MIK (St. aureus [4]): 32 µg/mL; zone of inhibition at 100 µg/disc (A. niger [5]): 15 mm; MIK (A. niger [3]): 8 µg/mL; zone of inhibition at 100 µg/disc (St. aureus [6]): 15 mm; MIK (C. albicans [2]): 8 µg/mL; zone of inhibition at 100 µg/disc (B. subtilis [7]): 12 mm; zone of inhibition at 100 µg/disc (C. albicans [8]): 24 mm; IC50 [1]: 17.7 to 58.8 µM; MIK (B. subtilis [9]): 32 µg/mL; MIK (E. coli): > 256 µg/mL
CN[C@H](CC(C)C)C(=O)N[C@H]1C(=O)N[C@@H](CC(N)=O)C(=O)N[C@H]2C(=O)N[C@H]3C(=O)N[C@H](C(=O)N[C@H](C(=O)O)c4cc(O)cc(O)c4-c4cc3ccc4O)[C@H](O)c3ccc(c(Cl)c3)Oc3cc2cc(c3O[C@@H]2O[C@H](CO)[C@@H](O)[C@H](O)[C@H]2O[C@H]2C[C@](C)(N)[C@H](O)[C@H](C)O2)Oc2ccc(cc2Cl)[C@H]1O [Vancomycin, reference compound]						MIK (St. aureus [4]): 0.5 to 2 µg/mL; MIK (B. subtilis [9]): 0.25 to 1 µg/mL
O=S(=O)(NC1=NOC2(CCCCCCC2)C1)c1ccc2ccccc2c1 [Compound 5j, N-(1-Oxa-2-azaspiro[4.7]dodec-2-en-3-yl)naphthalene-2-sulfonamide]	143 to 145 °C	26.8 ± 3.5 µM	27.5 ± 4.2 µM	19 ± 3 µM		IC50 (Hek293t): 23.1 ± 6.5 µM; IC50 [1]: 17.7 to 58.8 µM
O=[N+]([O-])c1ccccc1S(=O)(=O)NC1=NOC2(CCCCCCC2)C1 [Compound 5i, 2-Nitro-N-(1-oxa-2-azaspiro[4.7]dodec-2-en-3-yl)benzenesulfonamide]	164 to 165 °C					
O=S(=O)(NC1=NOC2(CCCCCCC2)C1)c1ccc2c(c1)OCCO2 [Compound 5f, N-(1-Oxa-2-azaspiro[4.7]dodec-2-en-3-yl)-2,3-dihydrobenzo[b][1,4]dioxine-6-sulfonamide]	192 to 194 °C	64.1 ± 8 µM	119 µM	23.6 ± 4.5 µM	42 ± 8.6 µM	
CC1CCC2(CC1)SC(N)=NC2(C)C (stereo not drawn) [A, spirothiazamenthane]						activity against the Rimantadine-resistant M2 proton channel [10]: inactive
O=S(=O)(NC1=NOC2(CCCCCCC2)C1)c1cccnc1 [Compound 5l, N -(1-Oxa-2-azaspiro[4.7]dodec-2-en-3-yl)pyridine-3-sulfonamide]	145 to 146 °C	> 150 µM	> 150 µM	133 ± 68 µM		IC50 (Hek293t): > 500 µM
O=[N+]([O-])C1=NOC2CCCCCCC12 (stereo not drawn) [Compound 2, 3-Nitro-3a,4,5,6,7,8,9,9a-octahydrocycloocta[d]isoxazole]	52 to 53 °C	35.4 ± 4.5 µM	40.4 ± 2.5 µM	17.7 ± 5 µM	27.4 ± 4 µM	MIK (St. aureus [4]): 8 to 16 µg/mL; zone of inhibition at 100 µg/disc (A. niger [5]): 15 mm; MIK (A. niger [3]): 16 µg/mL; zone of inhibition at 100 µg/disc (St. aureus [6]): 25 mm; MIK (C. albicans [2]): 32 µg/mL; zone of inhibition at 100 µg/disc (B. subtilis [7]): 16 mm; zone of inhibition at 100 µg/disc (C. albicans [8]): 19 mm; IC50 [1]: 17.7 to 58.8 µM; MIK (B. subtilis [9]): 32 µg/mL; MIK (E. coli): > 256 µg/mL
O=S(=O)(NC1=NOC2(CCCCCCC2)C1)c1cccs1 [Compound 5k, N -(1-Oxa-2-azaspiro[4.7]dodec-2-en-3-yl)thiophene-2-sulfonamide]	149 to 151 °C	> 150 µM	111 ± 20 µM	131 ± 80 µM		IC50 (Hek293t): 65.5 ± 13.5 µM
